# Patent publication US6710049B2, “Azole compounds as anti-fungal agents” (Ranbaxy Laboratories Limited, priority 2000, dated 2004)
# Tests used:
# Fusarium 29600 = assay: MFC determination (subculture on Sabouraud Dextrose Agar); format: cell-based; details: Fusarium, 29600, read-out: Minimum Fungicidal Concentration (MFC)
# Description: (§1) The in-vitro evaluation of the antifungal activity of the compounds can be performed by determining the minimum inhibitory concentration (MIC) as shown in Table 1 which is the concentration of the test compound in Rosewell Park Memorial Institute (RPMI) 1640 liquid medium buffered with 3-(Morpholino)propanesulphonic acid (MOPS) to pH 7, at which there is significant inhibition of the particular fungi. In practice the National Committee for Clinical Laboratory Standard (NCCLS) M27A document for Candida and Cryptococcus and M38P for Aspergillus was used to determine the MIC against yeast and filamentous fungi with suitable modifications for dermatophytes to other filamentous fungi. Three quality control strains were included each time the MIC were determined and readings recorded only when the Quality Control results fell into the acceptable range. After MIC results had been recorded, 100 μl from each of the well showing no growth was spread over Sabouraud Dextrose Agar (SDA) to determine the minimum fungicidal concentration (MFC) as shown in Table 2.
# Penicillium 2548 [1] = assay: as above; format: cell-based; details: read-out: Minimum Fungicidal Concentration (MFC)
# Description: as §1
# A niger E5 - 1047 [2] = assay: as above; format: cell-based; details: read-out: Minimum Fungicidal Concentration (MFC)
# Description: as §1
# C krusei 6258 [3] = assay: as above; format: cell-based; details: read-out: Minimum Fungicidal Concentration (MFC)
# Description: as §1
# Penicillium H - 1048 [4] = assay: as above; format: cell-based; details: H1048, read-out: Minimum Fungicidal Concentration (MFC)
# Description: as §1
# Penicillium 1641 = assay: as above; format: cell-based; details: read-out: Minimum Fungicidal Concentration (MFC)
# Description: as §1
# Fusarium 18270 = assay: as above; format: cell-based; details: Fusarium, 18270, read-out: Minimum Fungicidal Concentration (MFC)
# Description: as §1
# Rhizopus (Ceylon) [5] = assay: as above; format: cell-based; details: read-out: Minimum Fungicidal Concentration (MFC)
# Description: as §1
# Penicillium 31620 = assay: as above; format: cell-based; details: read-out: Minimum Fungicidal Concentration (MFC)
# Description: as §1
# Mucor (Ceylon) = assay: as above; format: cell-based; details: read-out: Minimum Fungicidal Concentration (MFC)
# Description: as §1
# A flavus P3 - 1041 [6] = assay: as above; format: cell-based; details: read-out: Minimum Fungicidal Concentration (MFC)
# Description: as §1
# Penicillium I - 1049 [7] = assay: as above; format: cell-based; details: I1049, read-out: Minimum Fungicidal Concentration (MFC)
# Description: as §1
# Fusarium (Ceylon) = assay: as above; format: cell-based; details: read-out: Minimum Fungicidal Concentration (MFC)
# Description: as §1
# A flavus E3 - 1044 [8] = assay: as above; format: cell-based; details: read-out: Minimum Fungicidal Concentration (MFC)
# Description: as §1
# Rhizopus 1052 [9] = assay: as above; format: cell-based; details: read-out: Minimum Fungicidal Concentration (MFC)
# Description: as §1
# A flavus E4 - 1042 [10] = assay: as above; format: cell-based; details: read-out: Minimum Fungicidal Concentration (MFC)
# Description: as §1
# A niger P1 - 1046 [11] = assay: as above; format: cell-based; details: read-out: Minimum Fungicidal Concentration (MFC)
# Description: as §1
# Penicillium 191 [12] = assay: as above; format: cell-based; details: read-out: Minimum Fungicidal Concentration (MFC)
# Description: as §1
# C parapsilosis 22019 [13] = assay: as above; format: cell-based; details: read-out: Minimum Fungicidal Concentration (MFC)
# Description: as §1
# A flavus P2 - 1045 [14] = assay: as above; format: cell-based; details: read-out: Minimum Fungicidal Concentration (MFC)
# Description: as §1
# Alternaria 1051 [15] = assay: as above; format: cell-based; details: read-out: Minimum Fungicidal Concentration (MFC)
# Description: as §1
# Penicillium 2306 = assay: as above; format: cell-based; details: read-out: Minimum Fungicidal Concentration (MFC)
# Description: as §1
# Fusarium 1827C = assay: MIC determination (NCCLS broth method); format: cell-based; details: read-out: Minimum Inhibitory Concentration (MIC)
# Description: as §1
# C tropicalis 750 = assay: MIC determination (NCCLS broth method); format: cell-based; details: read-out: Minimum Inhibitory Concentration (MIC)
# Description: as §1
# Penicillium 3162 = assay: MIC determination (NCCLS broth method); format: cell-based; details: read-out: Minimum Inhibitory Concentration (MIC)
# Description: as §1
# Penicillium 2548 [16] = assay: MIC determination (NCCLS broth method); format: cell-based; details: read-out: Minimum Inhibitory Concentration (MIC)
# Description: as §1
# A niger E5 - 1047 [17] = assay: MIC determination (NCCLS broth method); format: cell-based; details: read-out: Minimum Inhibitory Concentration (MIC)
# Description: as §1
# C krusei 6258 [18] = assay: MIC determination (NCCLS broth method); format: cell-based; details: read-out: Minimum Inhibitory Concentration (MIC)
# Description: as §1
# Penicillium H - 1048 [19] = assay: MIC determination (NCCLS broth method); format: cell-based; details: H1048, read-out: Minimum Inhibitory Concentration (MIC)
# Description: as §1
# Rhizopus (Ceylon) [20] = assay: MIC determination (NCCLS broth method); format: cell-based; details: read-out: Minimum Inhibitory Concentration (MIC)
# Description: as §1
# A flavus P3 - 1041 [21] = assay: MIC determination (NCCLS broth method); format: cell-based; details: read-out: Minimum Inhibitory Concentration (MIC)
# Description: as §1
# C glabrata 90030 = assay: MIC determination (NCCLS broth method); format: cell-based; details: read-out: Minimum Inhibitory Concentration (MIC)
# Description: as §1
# Penicillium I - 1049 [22] = assay: MIC determination (NCCLS broth method); format: cell-based; details: I1049, read-out: Minimum Inhibitory Concentration (MIC)
# Description: as §1
# A flavus E3 - 1044 [23] = assay: MIC determination (NCCLS broth method); format: cell-based; details: read-out: Minimum Inhibitory Concentration (MIC)
# Description: as §1
# Fusarium 1050 = assay: MIC determination (NCCLS broth method); format: cell-based; details: read-out: Minimum Inhibitory Concentration (MIC)
# Description: as §1
# Rhizopus 1052 [24] = assay: MIC determination (NCCLS broth method); format: cell-based; details: read-out: Minimum Inhibitory Concentration (MIC)
# Description: as §1
# A flavus E4 - 1042 [25] = assay: MIC determination (NCCLS broth method); format: cell-based; details: read-out: Minimum Inhibitory Concentration (MIC)
# Description: as §1
# A niger P1 - 1046 [26] = assay: MIC determination (NCCLS broth method); format: cell-based; details: read-out: Minimum Inhibitory Concentration (MIC)
# Description: as §1
# Penicillium 191 [27] = assay: MIC determination (NCCLS broth method); format: cell-based; details: read-out: Minimum Inhibitory Concentration (MIC)
# Description: as §1
# C parapsilosis 22019 [28] = assay: MIC determination (NCCLS broth method); format: cell-based; details: read-out: Minimum Inhibitory Concentration (MIC)
# Description: as §1
# A flavus E2 - 1043 = assay: MIC determination (NCCLS broth method); format: cell-based; details: read-out: Minimum Inhibitory Concentration (MIC)
# Description: as §1
# C krusei 766.1 = assay: MIC determination (NCCLS broth method); format: cell-based; details: read-out: Minimum Inhibitory Concentration (MIC)
# Description: as §1
# Fusarium 2960C = assay: MIC determination (NCCLS broth method); format: cell-based; details: read-out: Minimum Inhibitory Concentration (MIC)
# Description: as §1
# A flavus P2 - 1045 [29] = assay: MIC determination (NCCLS broth method); format: cell-based; details: read-out: Minimum Inhibitory Concentration (MIC)
# Description: as §1
# Alternaria 1051 [30] = assay: MIC determination (NCCLS broth method); format: cell-based; details: read-out: Minimum Inhibitory Concentration (MIC)
# Description: as §1
# C albicans A-26 = assay: MIC determination (NCCLS broth method); format: cell-based, Candida albicans; details: Candida albicans, A26, read-out: Minimum Inhibitory Concentration (MIC)
# Description: as §1
# C albicans Y01.19 = assay: MIC determination (NCCLS broth method); format: cell-based, Candida albicans; details: Candida albicans, read-out: Minimum Inhibitory Concentration (MIC)
# Description: as §1
smiles,measurement,setting,value
CCC(C)n1ncn(-c2ccc(N3CCN(c4ccc(OCC5COC(Cn6cncn6)(c6ccc(Cl)cc6Cl)O5)cc4)CC3)cc2)c1=O (centres unmarked) [Itraconazole],MFC,Fusarium 29600,> 128 µg/mL
same,MFC,Penicillium 2548 [1],0.06 µg/mL
same,MFC,A niger E5 - 1047 [2],0.125 µg/mL
same,MFC,C krusei 6258 [3],64 µg/mL
same,MFC,Penicillium H - 1048 [4],> 128 µg/mL
same,MFC,Penicillium 1641,0.06 µg/mL
same,MFC,Fusarium 18270,128 µg/mL
same,MFC,Rhizopus (Ceylon) [5],128 µg/mL
same,MFC,Penicillium 31620,1 µg/mL
same,MFC,Mucor (Ceylon),> 128 µg/mL
same,MFC,A flavus P3 - 1041 [6],0.06 µg/mL
same,MFC,Penicillium I - 1049 [7],> 128 µg/mL
same,MFC,Fusarium (Ceylon),> 128 µg/mL
same,MFC,A flavus E3 - 1044 [8],0.03 µg/mL
same,MFC,Rhizopus 1052 [9],8 µg/mL
same,MFC,A flavus E4 - 1042 [10],0.125 µg/mL
same,MFC,A niger P1 - 1046 [11],0.25 µg/mL
same,MFC,Penicillium 191 [12],0.06 µg/mL
same,MFC,C parapsilosis 22019 [13],8 µg/mL
same,MFC,A flavus P2 - 1045 [14],0.25 µg/mL
same,MFC,Alternaria 1051 [15],32 µg/mL
same,MFC,Penicillium 2306,16 µg/mL
same,MIC,Fusarium 1827C,128 µg/mL
same,MIC,C tropicalis 750,0.016 µg/mL
same,MIC,Penicillium 3162,0.25 µg/mL
same,MIC,Penicillium 2548 [16],0.25 µg/mL
same,MIC,A niger E5 - 1047 [17],0.03 µg/mL
same,MIC,C krusei 6258 [18],0.25 µg/mL
same,MIC,Penicillium H - 1048 [19],16 µg/mL
same,MIC,Rhizopus (Ceylon) [20],64 µg/mL
same,MIC,A flavus P3 - 1041 [21],0.06 µg/mL
same,MIC,C glabrata 90030,0.5 µg/mL
same,MIC,Penicillium I - 1049 [22],16 µg/mL
same,MIC,A flavus E3 - 1044 [23],0.03 µg/mL
same,MIC,Fusarium 1050,64 µg/mL
same,MIC,Rhizopus 1052 [24],16 µg/mL
same,MIC,A flavus E4 - 1042 [25],0.06 µg/mL
same,MIC,A niger P1 - 1046 [26],0.125 µg/mL
same,MIC,Penicillium 191 [27],0.06 µg/mL
same,MIC,C parapsilosis 22019 [28],0.03 µg/mL
same,MIC,A flavus E2 - 1043,0.03 µg/mL
same,MIC,C krusei 766.1,0.5 µg/mL
same,MIC,Fusarium 2960C,16 µg/mL
same,MIC,A flavus P2 - 1045 [29],0.06 µg/mL
same,MIC,Alternaria 1051 [30],0.125 µg/mL
same,MIC,C albicans A-26,0.016 µg/mL
same,MIC,C albicans Y01.19,0.25 µg/mL
